Patent publication US8748700B2, “Control of AAD-1 monocot volunteers in fields of dicot crops” (Dow AgroSciences, LLC., priority 2009, dated 2014)

How the values were obtained:
[1] = system: volunteer conventional or transgenic maize lines; assay: Control of volunteer maize in a field planted with AAD-maize using alternative herbicides (Table 6, herbicide options); type: in vivo; details: for Herbicides option - Burndown/PRE: planted: any AAD-1 hybrid of the table
Description: In an embodiment, volunteer transgenic maize lines (containing the Clear Field trait, Roundup Ready or other Glyphosate Tolerant Trait, Liberty Link Trait, Imidazolonine tolerant trait, or any stacked combination thereof) or volunteer conventional maize lines are controlled within a field of transgenic AAD maize (AAD-1) by the application of aryloxyphenoxypropionate herbicide (Fops) including, but not limited to; quizalofop, haloxyfop, fenoxaprop, fluazifop, et al., their stereospecific isomers or racemic mixtures, and esters, acid, or salts thereof. In addition, the Fops herbicide may be applied with another herbicide(s) to control the volunteer maize lines described above.
The application of a given herbicide can be made before planting at pre-emergence/burndown or post-emergence after planting to control the volunteer conventional or transgenic maize lines. Table 6 lists the herbicides to be used at the different stages of planting (pre-emergence or post-emergence) to control volunteer conventional or transgenic maize. At or about a 1× Field Rate concentration of herbicide would be applied, as either a tank mix or alone, to the field for both pre-emergent and post-emergent volunteer control.
The control of conventional maize plants or transgenic maize plants containing a herbicide tolerant expression cassette within a field of AAD transgenic maize (either stacked with other herbicide tolerant traits or alone) would be applicable for the control of a herbicide tolerant transgenic monocot plant (including, but not limited too; corn, rice, sugar cane, switch grass, turf grass species, sorghum, barley, wheat, and oats, and durum) within a field being planted with an AAD monocot crop (including, but not limited too; corn, rice, sugar cane, switch grass, turf grass species, sorghum, barley, wheat, and oats, and durum). The example described above, in which volunteer transgenic herbicide tolerant maize plants are controlled in a field planted with AAD transgenic maize, is illustrative of the invention and not intended to restrict the scope of this embodiment.

[2] = system: Transgenic Hi-II maize plants containing the AAD-1 and PAT expression cassette (3404); assay: Post-emergent herbicide application on transgenic maize containing AAD-1 and PAT (pDAB3404), visual injury assessment; type: in vivo; details: for Tolerance (−/+) 3404: 3404 = molecular stack of AAD-1 and PAT crossed with CP4 for glyphosate tolerance, V1-V3 stage, 1x Field Rate, visual injury after 14 days; for Comment (activity in words): applies to both WT and AAD-1 plants; for injury: WT and 3404 not distinguished
Description: Seed were planted into Metro Mix Media (Sun Gro Horticulture Inc., Bellevue, Wash.) and subirrigated with Hoagland's solution until wet, then allowed to gravity drain. Pots were placed in a glasshouse environment set to 27° C. until the germinated plants reached the V1-V3 growth stage. At or about, the V1-V3 growth stage, the maize plants were spayed using a track sprayer and a drop down nozzle calibrated to deliver a187 L/ha solution of herbicide at the 1× Field Rate (Table 7). After treatment the plants were placed in the greenhouse and scored via visual injury assessment after 14 days.

[3] = volunteer: CL Corn, planted: AAD-1 + PAT + AHAS
[4] = volunteer: CL Corn, planted: AAD-1 + PAT + GAT + ALS
[5] = volunteer: CL Corn, planted: AAD-1 + PAT + GT
[6] = volunteer: Conventional corn, planted: AAD-1 + PAT + AHAS
[7] = volunteer: Conventional corn, planted: AAD-1 + PAT + GAT + ALS
[8] = volunteer: Conventional corn, planted: AAD-1 + PAT + GT
[9] = volunteer: RR or GT Corn (text printed beside the CL Corn lines r30-r36)

## O=C(O)CNCP(=O)(O)O [Glyphosate]
[1]; volunteer: CL (or AHAS) + PAT
  Herbicides option - Burndown/PRE: Glyphosate
[1]; volunteer: CL Corn
  Herbicides option - Burndown/PRE: Glyphosate
[1]; volunteer: Conventional corn
  Herbicides option - Burndown/PRE: Glyphosate
[1]; volunteer: GAT + ALS
  Herbicides option - Burndown/PRE: Glyphosate
[1]; volunteer: LL Corn
  Herbicides option - Burndown/PRE: Glyphosate

## CCSC(C)CC1CC(=O)C(/C(CC)=N/OC/C=C/Cl)=C(O)C1 (stereo not shown) [clethodim]
[2]
  Tolerance (−/+) 3404: −

## C[C@@H](Oc1ccc(Oc2ncc(Cl)cc2F)cc1)C(=O)O [clodinafop]
[2]
  Tolerance (−/+) 3404: +

## CCCCOC(=O)[C@@H](C)Oc1ccc(Oc2ccc(C#N)cc2F)cc1 [cyhalofop-butyl]
[2]
  Tolerance (−/+) 3404: +

## COC(=O)C(C)Oc1ccc(Oc2ccc(Cl)cc2Cl)cc1 (stereo not shown) [diclofop-methyl]
[2]
  Tolerance (−/+) 3404: −
  Comment (activity in words): Not active on grasses

## CCOC(=O)[C@@H](C)Oc1ccc(Oc2nc3ccc(Cl)cc3o2)cc1 [fenoxaprop-P-ethyl]
[2]
  Tolerance (−/+) 3404: +

## CCCCOC(=O)[C@@H](C)Oc1ccc(Oc2ccc(C(F)(F)F)cn2)cc1 [fluazifop-P-butyl]
[2]
  Tolerance (−/+) 3404: +

## CP(=O)(O)CCC(N)C(=O)O (stereo not shown) [glufosinate-ammonium]
[2]
  Tolerance (−/+) 3404: +

## CP(=O)(O)CCC(N)C(=O)O (stereo not shown) [glufosinate]
[1]; volunteer: CL (or AHAS) + GT, planted: AAD-1 + PAT
  Herbicides option - POST: glufosinate
[1]; volunteer: CL (or AHAS) + GT, planted: AAD-1 + PAT + AHAS
  Herbicides option - POST: glufosinate
[1]; volunteer: CL (or AHAS) + GT, planted: AAD-1 + PAT + GAT + ALS
  Herbicides option - POST: glufosinate
[1]; volunteer: CL (or AHAS) + GT, planted: AAD-1 + PAT + GT
  Herbicides option - POST: glufosinate
[1]; volunteer: CL (or AHAS) + GT
  Herbicides option - Burndown/PRE: glufosinate
[1]; volunteer: CL (or AHAS) + PAT
  Herbicides option - Burndown/PRE: glufosinate
[1]; volunteer: CL Corn, planted: AAD-1 + PAT
  Herbicides option - POST: glufosinate
[1]; [3]
  Herbicides option - POST: glufosinate
[1]; [4]
  Herbicides option - POST: glufosinate
[1]; [5]
  Herbicides option - POST: glufosinate
[1]; volunteer: CL Corn
  Herbicides option - Burndown/PRE: glufosinate
[1]; volunteer: Conventional corn, planted: AAD-1 + PAT
  Herbicides option - POST: glufosinate
[1]; [6]
  Herbicides option - POST: glufosinate
[1]; [7]
  Herbicides option - POST: glufosinate
[1]; [8]
  Herbicides option - POST: glufosinate
[1]; volunteer: Conventional corn
  Herbicides option - Burndown/PRE: glufosinate
[1]; volunteer: GAT + ALS, planted: AAD-1 + PAT
  Herbicides option - POST: glufosinate
[1]; volunteer: GAT + ALS, planted: AAD-1 + PAT + AHAS
  Herbicides option - POST: glufosinate
[1]; volunteer: GAT + ALS, planted: AAD-1 + PAT + GAT + ALS
  Herbicides option - POST: glufosinate
[1]; volunteer: GAT + ALS, planted: AAD-1 + PAT + GT
  Herbicides option - POST: glufosinate
[1]; volunteer: GAT + ALS
  Herbicides option - Burndown/PRE: glufosinate
[1]; [9]
  Herbicides option - Burndown/PRE: glufosinate
[1]; volunteer: RR or GT Corn, planted: AAD-1 + PAT
  Herbicides option - POST: glufosinate
[1]; volunteer: RR or GT Corn, planted: AAD-1 + PAT + AHAS
  Herbicides option - POST: glufosinate
[1]; volunteer: RR or GT Corn, planted: AAD-1 + PAT + GAT + ALS
  Herbicides option - POST: glufosinate
[1]; volunteer: RR or GT Corn, planted: AAD-1 + PAT + GT
  Herbicides option - POST: glufosinate

## CC(C)N.O=C(O)CNCP(=O)(O)O [glyphosate-isopropylammonium]
[2]
  Tolerance (−/+) 3404: +

## O=C(O)CNCP(=O)(O)O [glyphosate]
[1]; volunteer: CL (or AHAS) + PAT, planted: AAD-1 + AHAS
  Herbicides option - POST: glyphosate
[1]; volunteer: CL (or AHAS) + PAT, planted: AAD-1 + GAT + ALS
  Herbicides option - POST: glyphosate
[1]; volunteer: CL (or AHAS) + PAT, planted: AAD-1 + GT
  Herbicides option - POST: glyphosate
[1]; volunteer: CL (or AHAS) + PAT, planted: AAD-1 + PAT + AHAS
  Herbicides option - POST: glyphosate
[1]; volunteer: CL (or AHAS) + PAT, planted: AAD-1 + PAT + GAT + ALS
  Herbicides option - POST: glyphosate
[1]; volunteer: CL (or AHAS) + PAT, planted: AAD-1 + PAT + GT
  Herbicides option - POST: glyphosate
[1]; volunteer: CL Corn, planted: AAD-1 + AHAS
  Herbicides option - POST: glyphosate
[1]; volunteer: CL Corn, planted: AAD-1 + GAT + ALS
  Herbicides option - POST: glyphosate
[1]; volunteer: CL Corn, planted: AAD-1 + GT
  Herbicides option - POST: glyphosate
[1]; [3]
  Herbicides option - POST: glyphosate
[1]; [4]
  Herbicides option - POST: glyphosate
[1]; [5]
  Herbicides option - POST: glyphosate
[1]; volunteer: Conventional corn, planted: AAD-1 + AHAS
  Herbicides option - POST: glyphosate
[1]; volunteer: Conventional corn, planted: AAD-1 + GAT + ALS
  Herbicides option - POST: glyphosate
[1]; volunteer: Conventional corn, planted: AAD-1 + GT
  Herbicides option - POST: glyphosate
[1]; [6]
  Herbicides option - POST: glyphosate
[1]; [7]
  Herbicides option - POST: glyphosate
[1]; [8]
  Herbicides option - POST: glyphosate
[1]; volunteer: LL Corn, planted: AAD-1 + AHAS
  Herbicides option - POST: glyphosate
[1]; volunteer: LL Corn, planted: AAD-1 + GAT + ALS
  Herbicides option - POST: glyphosate
[1]; volunteer: LL Corn, planted: AAD-1 + GT
  Herbicides option - POST: glyphosate
[1]; volunteer: LL Corn, planted: AAD-1 + PAT + AHAS
  Herbicides option - POST: glyphosate
[1]; volunteer: LL Corn, planted: AAD-1 + PAT + GAT + ALS
  Herbicides option - POST: glyphosate
[1]; volunteer: LL Corn, planted: AAD-1 + PAT + GT
  Herbicides option - POST: glyphosate

## COC(=O)[C@@H](C)Oc1ccc(Oc2ncc(C(F)(F)F)cc2Cl)cc1 [haloxyfop-methyl R]
[2]
  Tolerance (−/+) 3404: +

## COCc1cnc(C2=NC(C)(C(C)C)C(=O)N2)c(C(=O)O)c1 (stereo not shown) [imazamox]
[2]
  Tolerance (−/+) 3404: −

## CC(C)C1(C)N=C(c2nc3ccccc3cc2C(=O)O)NC1=O (stereo not shown) [imazaquin]
[2]
  Tolerance (−/+) 3404: −/+
[2]; @ 50 g ai/ha
  injury: Need higher than 50 g ai/ha rate (50% injury @

## CCc1cnc(C2=NC(C)(C(C)C)C(=O)N2)c(C(=O)O)c1 (stereo not shown) [imazethapyr]
[2]
  Tolerance (−/+) 3404: −/+
[2]; @ 70 g ai/ha
  injury: Need higher than 70 g ai/ha rate (50% injury @

## C[n+]1ccc(-c2cc[n+](C)cc2)cc1 [paraquat]
[1]; volunteer: CL (or AHAS) + GT
  Herbicides option - Burndown/PRE: paraquat
[1]; volunteer: CL (or AHAS) + PAT
  Herbicides option - Burndown/PRE: paraquat
[1]; volunteer: CL Corn
  Herbicides option - Burndown/PRE: paraquat
[1]; volunteer: Conventional corn
  Herbicides option - Burndown/PRE: paraquat
[1]; volunteer: GAT + ALS + PAT
  Herbicides option - Burndown/PRE: paraquat
[1]; volunteer: GAT + ALS
  Herbicides option - Burndown/PRE: paraquat
[1]; volunteer: GT + CL (or AHAS) + PAT
  Herbicides option - Burndown/PRE: paraquat
[1]; volunteer: GT + PAT
  Herbicides option - Burndown/PRE: paraquat
[1]; volunteer: LL Corn
  Herbicides option - Burndown/PRE: paraquat
[1]; [9]
  Herbicides option - Burndown/PRE: paraquat

## CCc1cc(C)cc(CC)c1-c1c(OC(=O)C(C)(C)C)n2n(c1=O)CCOCC2 [pinoxaden]
[2]
  Tolerance (−/+) 3404: +/−
  Comment (activity in words): Not active but small amt of control on both WT

## CC(Oc1ccc(Oc2cnc3cc(Cl)ccc3n2)cc1)C(=O)O (stereo not shown) [quizalofop]
[2]
  Tolerance (−/+) 3404: +

## CCC/C(=N\OCC)C1=C(O)CC(CC(C)SCC)CC1=O (stereo not shown) [sethoxydim]
[2]
  Tolerance (−/+) 3404: −

## CCO/N=C(\CC)C1=C(O)CC(c2c(C)cc(C)cc2C)CC1=O (stereo not shown) [tralkoxydim]
[2]
  Tolerance (−/+) 3404: −
